The subject of test [1] is sAPP. The test can be described thus: plasma sAPP total ELISA pre- and post-acamprosate. It is filed as in vivo, human. An excerpt:
For sAPP levels, the Test plasma samples should be measured soon after collection. […] Just before assay, we thawed the test samples at a low temperature and mixed them completely. The plasma samples should be diluted appropriately with the EIA buffer, if needed. Duplicate measurement of test samples and standard are recommended. We used test samples in neutral pH range, and avoided the contaminations of organic solvent that may affect the measurement. Regarding the standard to quantify levels of sAPP, we prepared a series of sAPP standards in EIA buffer by serial dilutions, from 0.39 ng/mL to 25 ng/mL.
The ELISA plate was pre-coated with anti-human APP (R12A1) mouse IgG (IBL). First, the wells for reagent blank was determined, and 100 μL each of “EIA buffer” or 10 mM NaHCO3 buffer was added into the wells. Likewise, wells were assigned for test sample blank, test sample and diluted standard. Then 100 μL each of test sample blank, test sample and dilutions of standard was added into the appropriate wells. The test sample included the plasma sample from each subject, which may vary from 5-25 μl, made up to 100 μL with the EIA buffer. Each pre-coated plates was incubated overnight at 4° C. after covering it tightly with a plate lid. The plate was kept onto a rocker with gentle shaking. The next day, each well of the pre-coated plate was vigorously washed with wash buffer containing 0.05% Tween20 in phosphate buffer. This was performed by filling each well with wash buffer, leaving the pre-coated plate laid for 15-30 seconds and removing wash buffer completely from the plate by snapping. This procedure was repeated five times. After removing the remaining liquid from all wells completely by snapping the plate onto paper towel, we added 100 μL of labeled antibody solution into the wells of test samples, diluted standard and test sample blank. HRP labeled anti-Human APP (R101A4) mouse IgG from IBL was used. The plate was incubated for 30 minutes at 4° C. after covering it with plate lid, and then washed the plate 5 times in the same manner as described before. To develop the color, 100 μL of the Chromogen (TMB solution) was adding into the wells, and the plate was incubated for 30 minutes at room temperature in the dark.
When the liquid started turning blue (by addition of the Chromogen), 100 μL of the Stop solution (1N H2SO4) was added into the wells. […] A plate reader was used and measurements were conducted at 450 nm against a reagent blank. […]
The first project enrolled 12 youth aged 5 to 17 years with fragile X syndrome and comorbid ASD in a 10-week open-label trial of acamprosate. […] Plasma sAPP total and sAPPα were determined separately in serum using the ELISA kit obtained from Immuno Biological Laboratories (IBL, Gumma, Japan). […]

Test [2] has as its system glutamate or GABA receptors subtypes. The note with it: clinically relevant concentrations; cited from earlier work.
Test [3] concerns alcohol withdrawal associated anxiety. The note with it: in vivo; cited from earlier work.

Structures are written as SMILES. Where “and” joins values, the source holds several entries; their conditions need not be identical. Equal values may be shown once.

As to `CC(=O)NCCCS(=O)(=O)O` [Acamprosate, 3-Acetamidopropane-1-sulfonic acid], in test [1] (individual patients 1-6), the “fractional change in sAPP(total)-CP from Baseline to Week 12” value was −0.8279 and −0.3066 and −0.0102 and −0.1029 and −0.437 and −0.544. The “sAPP(total)-CP level, Week 12” value in test [1] (individual patients 1-6, after treatment) was 5.561 ng/mL and 25.16 ng/mL and 12.84 ng/mL and 8.077 ng/mL and 56.8 ng/mL and 7.547 ng/mL. In test [1] (pooled 15 participants (9 FXS, 6 idiopathic ASD), 1,054 mg/day, pre-treatment 32.6±38.3, p=0.01), the “mean sAPP total post-treatment” value turned out to be 21.4 ± 32.3 ng/mL. In addition, in test [1] (six subjects, idiopathic ASD trial, baseline 34.7, p=0.02), the “mean sAPP total at endpoint” value stood at 19.3 ng/mL. The “direct binding to glutamate or GABA receptors subtypes” value in test [2] is listed as “no direct binding”. Besides, in test [3], the “alcohol withdrawal associated anxiety effects” value is recorded as “reduce alcohol withdrawal associated anxiety effects”.

The values are drawn from US11733243B2, “Use of acamprosate to modulate ERK1/2 activation in animal models for FXS and ASD and individuals diagnosed with FXS and ASD” (Indiana University Research and Technology Corporation, priority 2013, dated 2023).
